Experimental data as given in ChEMBL document CHEMBL4184235, “Design, synthesis, SAR and biological investigation of 3-(carboxymethyl)rhodanine and aminothiazole inhibitors of Mycobacterium tuberculosis Zmp1” (Bioorg Med Chem Lett, 2018).
Values after ≈ are worked out from the molar mass of the structure shown.

Experiments:
[1] = Inhibition of N-terminal enterokinase-cleavable His-tagged full-length Mycobacterium tuberculosis Zmp1 expressed in Escherichia coli BL21(DE3) assessed as reduction in enzyme activity at 50 uM using MCA-Pro-Leu-Gly-Leu-Dpa-Ala-Arg-NH2 substrate by fluorometry
[2] = system: Mycobacterium tuberculosis; test: Inhibition of N-terminal enterokinase-cleavable His-tagged full-length Mycobacterium tuberculosis Zmp1 expressed in Escherichia coli BL21(DE3) assessed as residual enzyme activity at 50 uM using MCA-Pro-Leu-Gly-Leu-Dpa-Ala-Arg-NH2 substrate by fluorometry
[3] = Cytotoxicity against African green monkey Vero cells assessed as reduction in cell viability incubated for 72 hrs by MTT assay; format: cell-based; settings: chlorocebus sabaeus
[4] = Cytotoxicity against human THP1 cells assessed as reduction in cell viability incubated for 72 hrs by MTT assay; format: cell-based; settings: THP-1 cells
[5] = system: Mycobacterium tuberculosis; test: Antimycobacterial activity against Mycobacterium tuberculosis infected in human THP1 cells assessed as inhibition of microbial growth by measuring colony forming units at 10 ug/ml incubated for 72 hrs followed by plating on Middlebrook 7H11 medium for 21 days; format: functional; settings: THP-1, read-out: GI
[6] = system: Mycobacterium tuberculosis; test: Antimycobacterial activity against Mycobacterium tuberculosis H37Ra ATCC […] assessed as reduction in bacterial growth incubated for 7 days by resazurin microtiter assay; format: functional; settings: 168 h
[7] = system: Mycobacterium tuberculosis; test: Antimycobacterial activity against Mycobacterium tuberculosis infected in human THP1 cells assessed as inhibition of microbial growth by measuring colony forming units at 100 ug/ml incubated for 72 hrs followed by plating on Middlebrook 7H11 medium for 21 days; format: functional; settings: THP-1, read-out: GI

SMILES | IC50 [1] | Activity [2] | also measured
O=C(O)CN1C(=O)/C(=C/c2ccc(C(=O)O)cc2)SC1=S | 3.9 µM | 10.3% | 
COc1ccc(-c2csc(N[C@H](Cc3ccccc3)C(=O)O)n2)cc1 |  | 100% | 
C[C@H](C(=O)O)N1C(=O)/C(=C/c2cccc(C(=O)O)c2)SC1=S | 1.3 µM | 12.7% | 
O=C(O)c1ccc(Cc2csc(N[C@H](Cc3ccccc3)C(=O)O)n2)cc1 |  | 100% | 
COc1cccc(/C=C2\SC(=S)N(CC(=O)O)C2=O)c1 | 28.2 µM | 18.9% | 
O=C(O)[C@@H](Cc1ccccc1)Nc1nc(Cc2ccccc2)cs1 |  | 100% | 
COC(=O)c1cccc(Cc2csc(N[C@H](Cc3ccccc3)C(=O)O)n2)c1 |  | 100% | 
O=C(OCc1ccccc1)c1cccc(/C=C2\SC(=S)N([C@H](Cc3ccccc3)C(=O)O)C2=O)c1 | 24 µM | 13.5% | CC50 at 72 h [3]: 23.2 µg/mL (≈ 46.1 µM); CC50 at 72 h [4]: 11.2 µg/mL (≈ 22.2 µM); inhibition of growth at 10 µg/mL [5]: 53.8%; MIC [6]: 64 µg/mL (≈ 127 µM)
O=C(O)c1cccc(/C=C2\SC(=S)N([C@H](Cc3ccccc3)C(=O)O)C2=O)c1 | 9.3 µM | 13.4% | CC50 at 72 h [3]: > 125 µg/mL; CC50 at 72 h [4]: 102 µg/mL (≈ 246 µM); inhibition of growth at 10 µg/mL [5]: 23.4%; inhibition of growth at 100 µg/mL [7]: 54.5%; MIC [6]: > 64 µg/mL
O=C(O)c1cccc(-c2csc(N[C@H](Cc3ccccc3)C(=O)O)n2)c1 |  | 100% | 
COc1ccc(/C=C2\SC(=S)N([C@H](Cc3ccccc3)C(=O)O)C2=O)cc1 | 20.4 µM | 12.3% | 
COc1cccc(Cc2csc(N[C@H](Cc3ccccc3)C(=O)O)n2)c1 |  | 100% | 
O=C(O)[C@@H](Cc1ccccc1)N1C(=O)/C(=C/c2ccncc2)SC1=S | 26.9 µM | 19.1% | 
COc1cccc(-c2csc(N[C@H](Cc3ccccc3)C(=O)O)n2)c1 |  | 91.9% | 
O=C(OCCc1ccccc1)c1ccc(/C=C2\SC(=S)N([C@H](Cc3ccccc3)C(=O)O)C2=O)cc1 |  | 58.7% | 
O=C(O)c1cccc(Cc2csc(N[C@H](Cc3ccccc3)C(=O)O)n2)c1 |  | 100% | 
COC(=O)c1cccc(/C=C2\SC(=S)N([C@H](Cc3ccccc3)C(=O)O)C2=O)c1 | 12.5 µM | 13.2% | CC50 at 72 h [3]: 32.5 µg/mL (≈ 76 µM); CC50 at 72 h [4]: 21.9 µg/mL (≈ 51.2 µM); inhibition of growth at 10 µg/mL [5]: 0.5%; MIC [6]: 64 µg/mL (≈ 150 µM)
O=C(O)c1ccc(/C=C2\SC(=S)N([C@@H](Cc3ccccc3)C(=O)O)C2=O)cc1 |  |  | CC50 at 72 h [3]: > 125 µg/mL; CC50 at 72 h [4]: 115 µg/mL (≈ 278 µM); inhibition of growth at 10 µg/mL [5]: 57.4%; inhibition of growth at 100 µg/mL [7]: 58.3%; MIC [6]: > 64 µg/mL
COc1cccc(/C=C2\SC(=S)N([C@H](Cc3ccccc3)C(=O)O)C2=O)c1 | 18.4 µM | 10% | 
N#Cc1ccc(-c2csc(N[C@H](Cc3ccccc3)C(=O)O)n2)cc1 | 41.3 µM | 35% | 
COC(=O)c1ccc(Cc2csc(N[C@H](Cc3ccccc3)C(=O)O)n2)cc1 |  | 61% | 
CC(C)COC(=O)c1ccc(/C=C2\SC(=S)N([C@H](Cc3ccccc3)C(=O)O)C2=O)cc1 | 43.9 µM | 28.1% | 
O=C(O)CN1C(=O)/C(=C/c2cccc(C(=O)O)c2)SC1=S | 15.7 µM | 11.2% | 
COc1cccc(/C=C2\SC(=S)N([C@H](C)C(=O)O)C2=O)c1 | 23.4 µM | 12.6% | 
C[C@H](C(=O)O)N1C(=O)/C(=C/c2ccc(C(=O)O)cc2)SC1=S | 2.9 µM | 7.2% | 
O=C(O)c1ccc(-c2csc(N[C@H](Cc3ccccc3)C(=O)O)n2)cc1 |  | 100% | 
O=C(O)[C@@H](Cc1ccccc1)N1C(=O)/C(=C/c2cccs2)SC1=S | 11.4 µM | 10.4% | 
N#Cc1ccc(/C=C2\SC(=S)N([C@H](Cc3ccccc3)C(=O)O)C2=O)cc1 | 6.6 µM | 7.1% | 
O=C(O)c1ccc(/C=C2\SC(=S)N([C@H](Cc3ccccc3)C(=O)O)C2=O)cc1 | 0.87 µM |  | CC50 at 72 h [3]: > 125 µg/mL; CC50 at 72 h [4]: > 125 µg/mL; inhibition of growth at 10 µg/mL [5]: 0.1%; inhibition of growth at 100 µg/mL [7]: 60%; MIC [6]: > 64 µg/mL
O=C(O)[C@@H](Cc1ccccc1)Nc1nc(-c2ccc([N+](=O)[O-])cc2)cs1 | 35.7 µM | 36.3% | 
